In the assay the target is T1, Corticotropin-releasing factor receptor 1 (Homo sapiens, UniProt P34998).
T1 sequence (P34998 whole entry): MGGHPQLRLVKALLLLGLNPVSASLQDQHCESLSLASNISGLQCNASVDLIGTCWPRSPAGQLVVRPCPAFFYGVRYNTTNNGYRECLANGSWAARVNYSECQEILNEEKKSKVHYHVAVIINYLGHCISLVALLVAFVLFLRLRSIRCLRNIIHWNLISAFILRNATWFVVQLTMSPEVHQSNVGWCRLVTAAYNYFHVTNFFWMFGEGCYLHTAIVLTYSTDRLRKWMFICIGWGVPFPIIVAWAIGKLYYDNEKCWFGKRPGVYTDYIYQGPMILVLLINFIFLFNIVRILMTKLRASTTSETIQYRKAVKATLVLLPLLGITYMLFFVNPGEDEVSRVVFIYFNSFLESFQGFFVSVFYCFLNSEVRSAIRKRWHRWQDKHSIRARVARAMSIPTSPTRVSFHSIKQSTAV
In words: Displacement of [125I]0-CRF from human Corticotropin releasing factor receptor 1 expressed in CHO cells. The assay is classed as cell-based. Background: In a radioligand displacement assay an active substance lowers the binding of a labelled ligand.
The Ki is a measure of affinity in units of concentration, obtained from inhibition or displacement. The low end stands for a stronger hold on the target, the high end for a looser hold on the target. In turn, `CCCCN(CC)c1cc(C)nc2c(-c3ccc(Cl)cc3Cl)c(C)nn12` came in with a Ki of 5 nM.

The compound `CCCCNc1cc(C)nc2c(-c3ccc(Cl)cc3Cl)c(C)nn12` showed a Ki of 69 nM.

On to `CCCCN(CC)c1cc(C)nc2c(-c3ccccc3Cl)c(C)nn12`, for which the affinity corresponds to a Ki of 15 nM.

With `CCN(CCOC)c1cc(C)nc2c(-c3ccc(Cl)cc3Cl)c(C)nn12`, the affinity, expressed as Ki, was 11 nM.

`Cc1cc(N2CCCCC2)n2nc(C)c(-c3ccc(Cl)cc3Cl)c2n1` showed a Ki of 41 nM.

The compound `CCCCN(CC)c1cc(C)nc2c(-c3ccc(Cl)cc3Cl)cnn12` returned a Ki of 40 nM.

In turn, `CCCC1CCCCN1c1cc(C)nc2c(-c3ccc(Cl)cc3Cl)c(C)nn12` (centres undefined) gave a Ki of 6.4 nM.

For the compound `CCCCN(CC)c1cc(C)nc2c(-c3ccc(Cl)cc3)c(C)nn12`, the affinity, expressed as Ki, was 77 nM.

`CCCN(CC1CC1)c1cc(C)nc2c(-c3ccc(Cl)cc3Cl)c(C)nn12` returned a Ki of 3.2 nM.

With `CCCCN(CC)c1cc(C)nc2c(-c3ccccc3)c(C)nn12`, the affinity corresponds to a Ki of 511 nM.

Consider `Cc1cc(N2CCOCC2)n2nc(C)c(-c3ccc(Cl)cc3Cl)c2n1`, for which the Ki stood at 310 nM.

For the compound `CCCCN(OC)c1cc(C)nc2c(-c3ccc(Cl)cc3Cl)c(C)nn12`, the Ki turned out to be 216 nM.

The compound `CCCCN(CC)c1cc(C)nc2c(-c3c(Cl)cc(Cl)cc3Cl)c(C)nn12` had a Ki of 93 nM.

Compound `CCCCN(CC)c1nc(C)nc2c1c(C)cn2-c1c(C)cc(C)cc1C` [CP-154526] had a Ki of 56 nM.

Source of the values: ChEMBL document CHEMBL1131348, “Pyrazolo[1,5-a]pyrimidine CRF-1 receptor antagonists” (Bioorg Med Chem Lett, 1998).
